Data reported in patent US10004718B2, “Erythropoietin expression promoter” (TOHOKU UNIVERSITY, priority 2012, dated 2018).

Tests used:
[1] = tested on: mouse erythropoietin gene promoter; assay: Luciferase reporter assay of erythropoietin gene promoter in Hep3B cells; type: cell-based; conditions: for effect on erythropoietin gene promoter transcriptional activity compared with HIF activator FG-4592: compound 10 μM vs FG-4592 10 μM, 20% O2; for transcription level of the erythropoietin gene promoter: compound 10 μM, 20% O2, 48 hours, vs 20% O2/DMSO
Description: A plasmid vector HE-mPro-luc for luciferase assay on the promoter activity of the 5′ upstream transcriptional regulatory region of the mouse erythropoietin gene was prepared by cleaving, with restriction enzymes XbaI and SacI, a region having a length from −571 to +53 bp starting at the translation initiation site of exon 1 of the mouse erythropoietin gene, and inserting this region to a luciferase reporter vector pXP2 (Nordeen S K. BioTechniques. 6: […], 1988).
The Hep3B cells were adjusted to 10×10^4 cells/well in a 24-well cell culture plate and subcultured. Under microscopy, the Hep3B cells that reached a cell density of 70 to 80% were transfected with the plasmid DNA for luciferase reporter assay. The composition of a solution for transfection was prepared by mixing 2 μg of HE-mPro-luc, 50 ng of pRh-TK (manufactured by Promega K.K.), and 2 μl of Lipofectamine 2000 (manufactured by Invitrogen Corp.) with 100 μl of OptiMEM-I (manufactured by Life Technologies, Inc./GIBCO) per well, followed by incubation at room temperature for 20 minutes. The solution was added to the Hep3B cells in the 24-well cell culture plate preincubated in 0.5 ml of serum-free OptiMEM-I medium, and then incubated for 4 hours without serum and antibiotics under conditions of 37° C. and 5% CO2/20% O2. Then, the medium was replaced with RPMI1640 common medium 1 supplemented with each of 5 types of compounds (compounds #2, 4, 5, 18, and 21) at a concentration of 10 μM, followed by further incubation for 48 hours under conditions of 37° C. and 5% CO2/20% O2. Then, the medium was replaced with 0.5 ml of serum-free PBS, and the cells were gently washed, followed by the removal of PBS by suction. This operation was carried out twice. Then, 100 μl of passive lysis buffer (manufactured by Promega K.K.) was added thereto, and the cells were lysed by mixing at room temperature for 20 minutes. Hep3B cells cultured in the absence of the compound (DMSO added [1%]) (“20% O2/DMSO” of FIG. 3) were used as a negative control. Hep3B cells cultured in the presence of an HIF activator (FG-4592 [10 μM]) (“20% O2/FG4592” of FIG. 3) and Hep3B cells cultured under hypoxia (1% O2) conditions and in the absence of the compound (DMSO added [1%]) (“1% O2/DMSO” of FIG. 3) were used as positive controls.
Dual Luciferase Reporter Assay System (manufactured by Promega K.K.) was used in the luciferase reporter assay. The amounts of firefly and Renilla luciferases were measured using a luminometer Lumat LB9507 (manufactured by BERTHOLD TECHNOLOGIES GmbH & Co. KG). The amount of Fire fly luciferase was divided by the amount of Renilla luciferase to calculate the transcriptional activity of the erythropoietin gene.

[2] = tested on: mRNA expression of the erythropoietin gene; assay: Quantitative PCR of erythropoietin mRNA in Hep3B cells; type: cell-based, human; conditions: compound 10 μM, 20% O2, GAPDH internal standard
Description: Of the 5 types of compounds confirmed in Example 4 to be effective for promoting the transcriptional activity of the erythropoietin gene promoter, 4 types of compounds (compounds #2, 4, 5, and 21) were selected. From Hep3B cells cultured in RPMI1640 common medium 1 supplemented with each of these 4 types of compounds at a concentration of 10 μM, total RNA was extracted using TriPure Isolation Reagent (manufactured by F. Hoffmann La Roche AG) in a 6-well cell culture plate. Hep3B cells cultured in the absence of the compound (DMSO added) (“20% O2/DMSO” of FIG. 4) were used as a negative control. Hep3B cells cultured in the presence of a GATA-specific inhibitor (K7174 [10 μM]) (“20% O2/K7174” of FIG. 4) and Hep3B cells cultured under hypoxia (1% O2) conditions and in the absence of the compound (DMSO added [1%]) (“1% O2/DMSO” of FIG. 4) were used as positive controls.
The extracted RNA was used as a template to synthesize cDNA using SuperScript III RTS First-strand kit (manufactured by Invitrogen Corp.). Then, the expression of the erythropoietin mRNA was measured by quantitative PCR with GAPDH as an internal standard. The quantitative PCR was carried out using TaqMan® Gene Expression Assays (using GAPDH; Assay ID: Rn99999916_s1, and human erythropoietin; Assay ID: Hs00171267_ml TaqMan® probes [manufactured by Applied Biosystems Inc.]) and Step One Plus Real-Time PCR System (manufactured by Applied Biosystems Inc.).

[3] = tested on: erythropoietin; assay: Erythropoietin production in vivo in mice, oral administration for 7 days; set-up: species or system mouse; conditions: 7 consecutive days, plasma 24 hours after final administration, vs corn oil, DMSO+corn oil or no administration
Description: A mixed solution (200 μl) of each of 4 types of compounds (compounds #4, 5, 21, and 35) (10 mg/100 μl of DMSO) (10 μl) and corn oil (190 μl) was prepared. This mixed solution (200 μl) was orally administered to each mouse (C57BL/6N 8 W, male, 21-25 g) between 15:00 to 18:00 every day using a sonde. This administration was carried out for 7 consecutive days. Mice orally given corn oil or DMSO and corn oil as well as non-administered mice were used as controls.
24 hours after the final administration, each mouse was cervically dislocated, and 500 μl of blood was collected from the heart. Then, an anticoagulant (10 μl of heparin) was added thereto, and the resulting blood was centrifuged (12000 rpm×20 min, 4° C.) to isolate plasma. The plasma concentration […] of erythropoietin was measured using a kit (Quantikine Mouse/Rat Epo Immunoassay, manufactured by R&D Systems, Inc.).

SMILES | effect on erythropoietin gene promoter transcriptional activity compared with HIF activator FG-4592 [1] | transcription level of the erythropoietin gene promoter [1] | mRNA expression level of the erythropoietin gene [2] | amount of erythropoietin in the mouse blood [3]
O=C(CC(C(=O)O)c1c[nH]c2ccccc12)c1ccc(F)cc1 (stereo not drawn) [compound #4, 4-(4-Fluorophenyl)-2-(1H-indol-3-yl)-4-oxo-butanoic acid] | superior to the effect of the existing HIF activator (FG-4592) | increase the transcription level | increase the mRNA expression level | increased
O=C(O)C(CCCC(F)(F)C(F)(F)F)c1c[nH]c2ccccc12 (stereo not drawn) [compound #21, α-(4,4,5,5,5-Pentafluoro-1-pentyl)-3-indoleacetic acid] | superior to the effect of the existing HIF activator (FG-4592) | increase the transcription level | increase the mRNA expression level | increased
O=C(CC(C(=O)O)c1c[nH]c2ccccc12)c1ccc(F)cc1F (stereo not drawn) [compound #5, 4-(2,4-Difluorophenyl)-2-(1H-indol-3-yl)-4-oxo-butanoic acid] | superior to the effect of the existing HIF activator (FG-4592) | increase the transcription level | increase the mRNA expression level | increased
